Assay results from patent publication US20240366571A1, “MODULATORS OF SK4 POTASSIUM CHANNEL AND USES THEREOF” (Ramot at Tel-Aviv University Ltd., priority 2022, published 2024).

Columns and labels:
isolated rat hearts = experiment: Langendorff perfused isolated rat hearts: electrophysiology and hemodynamics; conditions: 10 μM
Procedure: (§1) Animals: Adult male Sprague-Dawley rats (n=56, 200-250 grams) and Guinea pigs (n=19, 400-700 grams) obtained from Envigo Laboratories (Jerusalem, Israel) were bred and grown in Ben-Gurion University of the Negev, Israel. Experiments in rats and guinea pigs were approved by the institutional ethics committee of Ben-Gurion University of the Negev, Israel (Protocol No. IL-24-05-2020(D) and were carried out in strict accordance with the Guide for the Care and Use of Laboratory Animals of the National Institutes of Health. The animals were kept under standardized conditions: 12:12 light: dark cycles at 20-24° C. and 30-70% relative humidity.
(§2) Perfused isolated hearts—Langendorff method: The isolated heart experiment setup was performed as described in Etzion et al., Am J Physiol Heart Circ Physiol (2008) 295, H1460-1469; and Mor et al., J Pharmacol Exp Ther (2013) 344, 59-67.]. Briefly, each animal was anesthetized with 2% isoflurane and an intraperitoneal (IP) injection of pentobarbital (60 mg/kg), followed by IP injection of Heparin (1000 U/kg). The heart was rapidly excised and placed into ice-cold Tyrode's buffer solution (consisted of 140 mM NaCl, 5.4 mM KCl, 0.5 mM MgCl2, 2.5 mM CaCl2, 0.39 mM NaH2PO4, 10 mM HEPES and 11 mM glucose, and titrated to pH 7.4 with NaOH). The aorta was cannulated and connected to a pre-heated (37° C.) and oxygenated perfusion system with Tyrode's solution while perfusion pressure was maintained at about 70 mmHg throughout the experiment. Prior to the experiment, the heart was left in Tyrode's solution to stabilize for 20 minutes for hemodynamic measurements, the left atrial appendage was excised, and a collapsed latex balloon was inserted into the left ventricle (LV) through the mitral valve. Once positioned, the balloon was filled with double distilled water reaching an end-diastolic pressure of 10-15 mmHg. Coronary perfusion pressure and LV pressure were recorded by a pressure amplifier (ETH-256C amplifier and B-100 probes, iWorx, NH, USA). Electrophysiological signals were recorded from the high right atrium (HRA) via a miniature quadripolar hook electrode (for simultaneous pacing and recording) and from the LV via a bipolar hook electrode. Electrical signals were filtered (1-2 kHz) and recorded by two voltage amplifiers (Model 3000, A-M Systems, Carlsberg, WA, USA). Signals were interfaced with a PC using an A/D converter (PCI-6024E, National Instruments, Austin TX, USA) and a custom-designed program developed with LabVIEW programing language (National Instruments, Austin, TX, USA) to control signal acquisition, data saving and off-line analysis. Measured physiological parameters during the experiment included perfusion flow (ml/minute) as a marker for coronary perfusion pressure, LV developed pressure, dP/dt±(representing the rate of rise of left ventricular pressure during isovolumetric contraction as a marker for LV contractility), heart rate, PR, and RR intervals. Tram-34 and BA6b9 were applied for a 20-minutes incubation period and physiological parameters were recorded.
(§3) Effective refractory period measurements: Using both custom-made quadripolar electrode inserted on the HRA and two bipolar electrodes (recording and pacing) on the LV, allowed measurement of the effective refractory period (ERP) at the atrial level (atrial effective refractory period, AERP), atrioventricular level (AVERP), and ventricular level (VERP). For ERP measurement, a programmed S1S2 stimulation protocol was performed using double diastolic threshold intensity. The protocol consisted of ten S1-S2 intervals of 150 milliseconds (ms) followed by an S1-S2 interval that was reduced by 1 ms each time, until pacing capture failed three consecutive times. AERP, AVERP, and VERP were measured and recorded prior and after exposure to the used inhibitor, either Tram-34 or BA6b9.

[1] = test system: isolated guinea pig hearts; experiment: Langendorff perfused isolated guinea pig hearts; conditions: 10 μM
Procedure: as §1, §2, §3

CCCCCCCn1c(=O)oc2ccccc21 [BA6b9, 3-heptylbenzo[d]oxazol-2(3H)-one]
AERP (effect) (isolated rat hearts): prolonged
AVERP (effect) (isolated rat hearts): prolonged
VERP (effect) (isolated rat hearts): did not change
coronary flow (perfusion flow velocity) (isolated rat hearts): minimal effect
left ventricular filling pressure (developed pressure) (isolated rat hearts): reduced
maximal pressure change in left ventricular contractility (dP/dt max) (isolated rat hearts): does not effect it
minimal pressure change in left ventricular contractility (dP/dt min) (isolated rat hearts): does not effect it
AERP (isolated rat hearts; from 56 ms before compound): 63 ms
PR interval (isolated rat hearts; from 56 ms before compound): 68 ms
AVERP (isolated rat hearts; from 84 ms before compound): 89 ms
heart rate (isolated rat hearts; from 228 bpm before compound): 196 bpm
AERP (effect) [1]: significantly prolonged
AVERP (effect) [1]: significantly prolonged
PR interval (effect) [1]: increasing PR interval
VERP (effect) [1]: significantly prolonged
action potential activation current (atrial and ventricular pacing thresholds) [1]: Neither Tram-34 nor BA6b9 affected
coronary flow (perfusion flow velocity) [1]: no effect
heart rate (effect) [1]: decreased heart rate
